Results on two compounds are retold here after patent US11331294B2, “Benzoquinone derivative E3330 in combination with chemotherapeutic agents for the treatment of bladder cancer” (Indiana University Research and Technology Corporation, priority 2007, dated 2022).

For data set [1], the system named is T24 cells. Briefly: Methylene blue cell growth assay T24. The data set is classed as cell-based. Conditions: Homo sapiens, T-24, read-out: cell growth-inhibitory IC50. As for the experimental part: (§1) FIGS. 31A & 31B. Treatment with APE1/Ref-1 inhibitors potently blocks bladder cancer cell proliferation and activated Caspase 3/7. […] The IC50 values for FIG. 31A were determined using the methylene blue assay, n=4. […] T24 and UC3 cells were treated with APX2009 and APX2014 at the IC50 and IC90 and monitored over time for activation of capsase 3/7 by an increase in red fluorescence. Time course graphs are shown in FIG. 31B and representative images at 48 hr are shown in FIG. 32A (described more fully below), n=3-4.
(§2) FIGS. 36A-36H. […] In cytokine-induced T24 and UC3 cells NFκB-driven luciferase (FIG. 36A), STAT3-driven luciferase (FIG. 36B), and AP-1-driven luciferase (FIG. 36C) were quantified and normalized via Renilla following treatment with the corresponding cell growth-inhibitory IC50 concentrations. T24 cells were treated with APX2009 (8.5 μM) and APX2014 (6.5 μM), and UC3 cells were treated with APX2009 (6.1 μM) and APX2014 (4.6 μM) for 24 h. (*-p<0.05 APX treated vs vehicle, n=4). […] In the panels of FIGS. 36F & 36G, co-expression of survivin and APE1/Ref-1 was analyzed in superficial (FIG. 36F) and invasive human bladder tumors (FIG. 36G) in patients, and found nearly universal overlap of positivity in both in human samples. This was also true in cisplatin-refractory patients from the tissue microarray specimens (FIG. 36H). […]

In data set [2] the test system is UC3 cells. Nature of the data set: Methylene blue cell growth assay UC3. The format is cell-based. Conditions: Homo sapiens, read-out: cell growth-inhibitory IC50. As for the experimental part:
as §1, §2

The test system of data set [3] is STAT3. Briefly: STAT3-driven luciferase reporter. The format is cell-based, human. Conditions: T24 and UC3 cells induced with IL-6, IC50 concentration, 24 h. Here is the method:
(§3) FIGS. 36A-36H. […] In cytokine-induced T24 and UC3 cells NFκB-driven luciferase (FIG. 36A), STAT3-driven luciferase (FIG. 36B), and AP-1-driven luciferase (FIG. 36C) were quantified and normalized via Renilla following treatment with the corresponding cell growth-inhibitory IC50 concentrations. T24 cells were treated with APX2009 (8.5 μM) and APX2014 (6.5 μM), and UC3 cells were treated with APX2009 (6.1 μM) and APX2014 (4.6 μM) for 24 h. (*-p<0.05 APX treated vs vehicle, n=4). […] In the panels of FIGS. 36F & 36G, co-expression of survivin and APE1/Ref-1 was analyzed in superficial (FIG. 36F) and invasive human bladder tumors (FIG. 36G) in patients, and found nearly universal overlap of positivity in both in human samples. This was also true in cisplatin-refractory patients from the tissue microarray specimens (FIG. 36H).
The transcriptional activity of NFκB, STAT3, and AP-1 is under redox control by APE1/Ref-1. Therefore, NFκB, STAT3, or AP-1 transcriptional activity was quantified following treatment with APE1/Ref-1 redox inhibitors (FIGS. 36A-36C).

Data set [4] relates to survivin and Cyclin D1. Nature of the data set: Western blot of survival and proliferation proteins in cells. The data set is classed as cell-based, human. Conditions: immunoblot. As for the experimental part:
as §3
Whole cell extracts were prepared using RIPA (radioimmunoprecipitation) buffer containing protein inhibitors (1:100 PMSF, 1:100 orthovanadate and 1:100 protease inhibitor). Total protein concentration was determined via Lowry or BCA assay. 10-50 μg/well of each lysate was separated by SDS-PAGE using a 12% SDS-polyacrylamide gel. Blots were blocked with 5% nonfat dry milk in 1×TBS for 1 h and incubated overnight with primary antibodies to either APE1/Ref-1 (1:1000 dilution, Novus, NB-100-116), survivin (1:1000, Cell Signaling), Cyclin D1 (1:500, Abcam), PARP-1 (1:1000, Cell Signaling) or GAPDH (1:5000, Cell Signaling). After blots were washed three-six times with TBS-Tween, blots were incubated with HRP-conjugated secondary mouse antibodies (1:5000, Pierce). After washing three-six times with TBS-Tween, blots were visualized by enhanced chemiluminescence (West Pico/West Femto, Pierce).
For further confirmation of a decrease in NFκB and STAT3 transcriptional activity, levels of survivin and Cyclin D1 were examined Both survivin and Cyclin D1 are known to be downstream targets of NFκB and STAT3. […] However, unlike APE1/Ref-1, survivin expression was primarily nuclear in both urothelial confined and invasive lesions.
(In general: A western blot detects proteins with antibodies after separation by electrophoresis.)

The target in data set [5] is redox function of Ape1/Ref-1 (Homo sapiens, UniProt P27695). Nature of the data set: Selective inhibition of the redox function of Ape1/Ref-1.
Data set [6] deals with CB-ECFC cells. Nature of the data set: Capillary tube formation assay on […]. The data set is classed as cell-based. Conditions: about eight hours after seeding. As for the experimental part: Inhibition of capillary tube formation. The capillary tube formation assay was performed using CB-ECFC cells plated on […]® and treated with APX3330 or control media. ECFCs were cultured as previously described (Blood, 1 Nov. 2004, Vol. 104, No. 9, pp. 2752-2760). ECFC colonies appeared between 5 and 22 days of culture. Colonies were counted by visual inspection using an inverted microscope (Olympus, Lake Success, N.Y.) under ×40 magnification. Cells were passaged as previously described. Blood, 1 Nov. 2004, Vol. 104, No. 9, pp. 2752-2760.)
The tube formation assay was performed as described previously (J. Biol. Chem. 274 (1999), pp. […]). Various concentrations of APX3330 were given to CB-ECFCs for about 30 min at room temperature before seeding and plated onto the layer of […]® at a density of about 1×10^4 cells/well. After about eight hours, the enclosed networks of complete tubes from randomly chosen fields were counted and photographed under a microscope.

In data set [7] the test system is endothelial cells. Briefly: In vitro tube formation assay. The format is cell-based. From the text:
In vitro tube formation assay.

The test system of data set [8] is SF767 glioma cells. Briefly: Glioma cell migration (scratch) assay. Conditions: 100 μM, 48 h. The format is cell-based. Here is the method:
Glioma Cell Migration Assay. APX3330 was tested to determine if it would inhibit the migration ability of SF767 glioma cells. In order to do this, we plated 1.5×10^6 SF767 cells in a 60 mm tissue culture dish and allowed them to attach overnight and form a confluent monolayer. A scratch or wound was made across the plate using a 200 μL pipette tip as described previously (Liang 2007). The cells were then rinsed to remove floating cells and media contain 25, 50, 75 or 100 μM APX3330 or the appropriate vehicle control, DMSO. The drug-containing media was removed after 24 h and fresh media was added Images were taken at three marked places along the scratch at 0, 24, 36 and 48 h after the drug was added. Migration was quantified in ten uniform places for each image taken using Spot Software (Diagnostic Instruments, Sterling Heights, Mich.) to measure the distance in microns between the leading edges of the scratch. Each set of data, a total of thirty for each data point, was normalized to the migration of the vehicle control at 0 h and used to determine standard deviation.

Data set [9] has as its system rat dorsal root ganglion cells. Briefly: MTS cell viability assay of dorsal root ganglion cells. The data set is classed as cell-based. Here is the method: APX3330 in combination with chemotherapeutic Cisplatin. […] There was no effect of APX3330 (RN3-3) on the post-mitotic DRG cells, indicative of a non-toxic effect of APX3330 (RN3-3) on non-dividing cells.
DRG cell cultures and treatments were performed similar to previously published procedures using just APX3330 alone (DNA Repair Volume 4, Issue 3, 2 Mar. 2005, pp […]).
For orientation: Tetrazolium assays rely on reduction of a dye to a coloured formazan, in cell work by metabolically active cells.

The nature of data set [10]: Preliminary in vivo safety in mice (body weight). Conditions: male mice, under 50 mg/kg.

Sequence of redox function of Ape1/Ref-1 (P27695 whole entry): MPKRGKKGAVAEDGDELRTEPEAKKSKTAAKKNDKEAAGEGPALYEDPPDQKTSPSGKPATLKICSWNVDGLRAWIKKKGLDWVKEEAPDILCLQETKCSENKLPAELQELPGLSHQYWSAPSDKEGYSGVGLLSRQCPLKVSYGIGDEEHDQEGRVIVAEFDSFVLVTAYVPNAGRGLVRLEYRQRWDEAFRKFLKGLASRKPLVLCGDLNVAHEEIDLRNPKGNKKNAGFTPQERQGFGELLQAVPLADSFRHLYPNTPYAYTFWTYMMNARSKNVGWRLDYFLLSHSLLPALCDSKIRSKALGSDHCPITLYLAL

The term IC50 denotes the midpoint of a concentration-inhibition curve. On to `CCC/C(=C\C1=C(OC)C(=O)c2ccccc2C1=O)C(=O)N(CC)CC` [APX2009, [(2E)-2-[(3-methoxy-1,4-dioxo-1,4-dihydronaphthalen-2-yl)methylidene]-N,N-diethylpentanamide]], for which the values for the IC50 in [1] and in data set [2] were 8.5 µM and 6.1 µM, respectively. Besides, the STAT3 transcriptional activity result in data set [3] is reported as “significantly blocked”. For the same compound, the “expression of c-Myc, Bcl-2, Bcl-XL” value in data set [4] is reported as “No change in expression”. For the same compound, the “expression of survivin and Cyclin D1” value in data set [4] was “significantly down-regulated”.

For `CCCCCCCCC/C(=C\C1=C(C)C(=O)C(OC)=C(OC)C1=O)C(=O)O` [APX3330], the “inhibition of the redox function of Ape1/Ref-1” value in data set [5] is recorded as “selectively inhibited”. Moreover, the tube formation result in data set [6] is reported as “inhibit tube formation”. Besides, the “tube formation, combination of AVASTIN and APX3330” value in [7] (combination use with AVASTIN) is on record as “synergistically more effective than either alone”. The “formation of blood-vessel-like tubules” value in data set [7] (dose dependent) is “prevented formation of blood-vessel-like tubules”. Further, the “inhibition of migration compared to vehicle control” value in data set [8] turned out to be 4.0 fold. Also, the “survival of dorsal root ganglion cells” value in data set [9] (as high as about 120 μM, up to about 72 hours) was “did not impair the survival”. Further, in data set [9] (with cisplatin), the “protection against cisplatin neurotoxicity” value is recorded as “provided protection against the neuro-toxic effects of the chemotherapeutic cisplatin”. The mouse toxicity result in data set [10] is “No mouse toxicity was observed”.
